Reference: patent publication US11987588B2, “Modulators of the beta-3 adrenergic receptor useful for the treatment or prevention of heart failure and disorders related thereto” (Arena Pharmaceuticals, Inc., priority 2017, dated 2024)

The compounds below were run against Beta-3 Adrenergic Receptor (Homo sapiens (Human), UniProt P13945) (assay: Homogeneous Time-Resolved Fluorescence (HTRF) cAMP antagonist assay, IC50 determination). Details: CHO-K1 cells stably expressing recombinant receptor, isoproterenol at EC90.
Sequence of Beta-3 Adrenergic Receptor (P13945 whole entry, species assumed): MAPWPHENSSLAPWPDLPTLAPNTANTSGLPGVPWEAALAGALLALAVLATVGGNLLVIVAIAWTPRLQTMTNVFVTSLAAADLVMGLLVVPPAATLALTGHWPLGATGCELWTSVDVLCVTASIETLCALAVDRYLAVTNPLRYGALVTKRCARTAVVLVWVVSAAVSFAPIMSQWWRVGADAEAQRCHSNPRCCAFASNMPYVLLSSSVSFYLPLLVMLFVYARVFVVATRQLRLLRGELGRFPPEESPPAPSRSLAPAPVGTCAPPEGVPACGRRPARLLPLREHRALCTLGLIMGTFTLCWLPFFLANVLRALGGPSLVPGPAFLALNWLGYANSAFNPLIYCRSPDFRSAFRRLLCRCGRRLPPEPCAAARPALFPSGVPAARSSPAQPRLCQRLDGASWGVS
Format: cell-based
Outline: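 Antagonist mode: isoproterenol at its predetermined EC90 added after compound to recombinant CHO-K1 cells in IBMX-containing PBS, 1 h, room temperature. Compounds tested as 5-fold, 10-point dilutions, top final typically 10 or 100 μM. HTRF signal converted to cAMP via standard curve, giving IC50.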

IC50	Compound
528 nM	CNS(=O)(=O)c1cccc(OC[C@@H](O)CN[C@H]2COC3(CCN(c4ncccn4)CC3)C2)c1 [Compound 576, 3-((S)-2-hydroxy-3-((R)-8-(pyrimidin-2-yl)-1-oxa-8-azaspiro[4.5]decan-3-ylamino)propoxy)-N-methylbenzenesulfonamide]
37.3 nM	CNS(=O)(=O)c1cccc(OC[C@@H](O)CN[C@H]2COC3(CCN(S(=O)(=O)c4cnc5[nH]ncc5c4)CC3)C2)c1 [Compound 490, 3-((S)-3-((R)-8-(1H-pyrazolo[3,4-b]pyridin-5-ylsulfonyl)-1-oxa-8-azaspiro[4.5]decan-3-ylamino)-2-hydroxypropoxy)-N-methylbenzenesulfonamide]
69 nM	CNS(=O)(=O)c1cccc(OC[C@@H](O)CN[C@H]2COC3(CCN(S(=O)(=O)c4cnc5c(c4)N(CCOC)CCO5)CC3)C2)c1 [Compound 471, 3-((S)-2-hydroxy-3-((R)-8-(1-(2-methoxyethyl)-2,3-dihydro-1H-pyrido[2,3-b][1,4]oxazin-7-ylsulfonyl)-1-oxa-8-azaspiro[4.5]decan-3-ylamino)propoxy)-N-methylbenzenesulfonamide]
78.6 nM	NS(=O)(=O)c1cccc(OC[C@@H](O)CN[C@H]2COC3(CCN(S(=O)(=O)c4ccc5ncccc5c4)CC3)C2)c1 [Compound 566, 3-((S)-2-hydroxy-3-((R)-8-(quinolin-6-ylsulfonyl)-1-oxa-8-azaspiro[4.5]decan-3-ylamino)propoxy)benzenesulfonamide]
4.89 nM	CNS(=O)(=O)c1cccc(OC[C@@H](O)CN[C@H]2COC3(CCN(S(=O)(=O)c4cnc5[nH]cc(Cl)c5c4)CC3)C2)c1 [Compound 510, 3-((S)-3-((R)-8-(3-chloro-1H-pyrrolo[2,3-b]pyridin-5-ylsulfonyl)-1-oxa-8-azaspiro[4.5]decan-3-ylamino)-2-hydroxypropoxy)-N-methylbenzenesulfonamide]
17.9 nM	CCOc1ccc(-c2ccc(CN)cc2)cc1S(=O)(=O)N1CCC2(CC1)C[C@@H](NC[C@H](O)COc1cccc(S(N)(=O)=O)c1)CO2 [Compound 567, 3-((S)-3-((R)-8-(4′-(aminomethyl)-4-ethoxybiphenyl-3-ylsulfonyl)-1-oxa-8-azaspiro[4.5]decan-3-ylamino)-2-hydroxypropoxy)benzenesulfonamide]
48.5 nM	NS(=O)(=O)c1cccc(OC[C@@H](O)CN[C@H]2COC3(CCN(S(=O)(=O)c4ccc5c(c4)CCCC5)CC3)C2)c1 [Compound 556, 3-((S)-2-hydroxy-3-((R)-8-(5,6,7,8-tetrahydronaphthalen-2-ylsulfonyl)-1-oxa-8-azaspiro[4.5]decan-3-ylamino)propoxy)benzenesulfonamide]
26.4 nM	NS(=O)(=O)c1cccc(OC[C@@H](O)CN[C@@H]2COC3(CCN(S(=O)(=O)c4cnc5cc[nH]c5c4)CC3)C2)c1 [Compound 563, 3-((S)-3-((S)-8-(1H-pyrrolo[3,2-b]pyridin-6-ylsulfonyl)-1-oxa-8-azaspiro[4.5]decan-3-ylamino)-2-hydroxypropoxy)benzenesulfonamide]
13.4 nM	CNS(=O)(=O)c1cccc(OC[C@@H](O)CN[C@H]2COC3(CCN(S(=O)(=O)c4cnc5ccccc5c4O)CC3)C2)c1 [Compound 541, 3-((S)-2-hydroxy-3-((R)-8-(4-hydroxyquinolin-3-ylsulfonyl)-1-oxa-8-azaspiro[4.5]decan-3-ylamino)propoxy)-N-methylbenzenesulfonamide]

Second part, the compound before the results:

Compound	IC50
CNS(=O)(=O)c1cccc(OC[C@@H](O)CN[C@H]2COC3(CCN(S(=O)(=O)c4cccc(-c5ccc(CC#N)cc5)c4)CC3)C2)c1 [Compound 294, 3-((S)-3-((R)-8-(4′-(cyanomethyl)biphenyl-3-ylsulfonyl)-1-oxa-8-azaspiro[4.5]decan-3-ylamino)-2-hydroxypropoxy)-N-methylbenzenesulfonamide]	56.2 nM
CNS(=O)(=O)c1cccc(OC[C@@H](O)CNC2COC3(CCN(S(=O)(=O)c4ccc(Br)c(C)c4)CC3)C2)c1 (stereo partly drawn) [Compound 159, 3-((2S)-3-(8-(4-bromo-3-methylphenylsulfonyl)-1-oxa-8-azaspiro[4.5]decan-3-ylamino)-2-hydroxypropoxy)-N-methylbenzenesulfonamide]	4.78 nM
CNS(=O)(=O)c1cccc(OC[C@@H](O)CN[C@@H]2COC3(CCN(S(=O)(=O)c4cc(-c5ccc(CN)cc5)ccc4OC)CC3)C2)c1 [Compound 384, 3-((S)-3-((S)-8-(4′-(aminomethyl)-4-methoxybiphenyl-3-ylsulfonyl)-1-oxa-8-azaspiro[4.5]decan-3-ylamino)-2-hydroxypropoxy)-N-methylbenzenesulfonamide]	11 nM
CNS(=O)(=O)c1cccc(OC[C@@H](O)CNC2COC3(CCN(S(=O)(=O)c4ccc(Cl)s4)CC3)C2)c1 (stereo partly drawn) [Compound 181, 3-((2S)-3-(8-(5-chlorothiophen-2-ylsulfonyl)-1-oxa-8-azaspiro[4.5]decan-3-ylamino)-2-hydroxypropoxy)-N-methylbenzenesulfonamide]	24.3 nM
CNS(=O)(=O)c1cccc(OC[C@@H](O)CN[C@@H]2COC3(CCN(S(=O)(=O)c4cccc(-c5ccc(S(N)(=O)=O)cc5)c4)CC3)C2)c1 [Compound 291, 3′-((S)-3-((S)-2-hydroxy-3-(3-(N-methylsulfamoyl)phenoxy)propylamino)-1-oxa-8-azaspiro[4.5]decan-8-ylsulfonyl)biphenyl-4-sulfonamide]	8.84 nM
CNS(=O)(=O)c1cccc(OC[C@@H](O)CNC2COC3(CCN(S(=O)(=O)c4cccc(F)c4Cl)CC3)C2)c1 (stereo partly drawn) [Compound 199, 3-((2S)-3-(8-(2-chloro-3-fluorophenylsulfonyl)-1-oxa-8-azaspiro[4.5]decan-3-ylamino)-2-hydroxypropoxy)-N-methylbenzenesulfonamide]	15 nM
CNS(=O)(=O)c1cccc(OC[C@@H](O)CNC2COC3(CCN(S(=O)(=O)c4cc(Cl)c(Cl)s4)CC3)C2)c1 (stereo partly drawn) [Compound 178, 3-((2S)-3-(8-(4,5-dichlorothiophen-2-ylsulfonyl)-1-oxa-8-azaspiro[4.5]decan-3-ylamino)-2-hydroxypropoxy)-N-methylbenzenesulfonamide]	20.8 nM
CNS(=O)(=O)c1cccc(OC[C@@H](O)CNC2COC3(CCN(S(=O)(=O)c4cccc(-c5cccc(N(C)C)c5)c4)CC3)C2)c1 (stereo partly drawn) [Compound 83, 3-((2S)-3-(8-(3′-(dimethylamino)biphenyl-3-ylsulfonyl)-1-oxa-8-azaspiro[4.5]decan-3-ylamino)-2-hydroxypropoxy)-N-methylbenzenesulfonamide]	99.9 nM
CNS(=O)(=O)c1cccc(OC[C@@H](O)CNC2COC3(CCN(S(=O)(=O)c4cc5ccccc5o4)CC3)C2)c1 (stereo partly drawn) [Compound 326, 3-((2S)-3-(8-(benzofuran-2-ylsulfonyl)-1-oxa-8-azaspiro[4.5]decan-3-ylamino)-2-hydroxypropoxy)-N-methylbenzenesulfonamide]	11.7 nM
CNS(=O)(=O)c1cccc(OC[C@@H](O)CN[C@H]2COC3(CCN(S(=O)(=O)c4cc(-c5ccc(CN)cc5)ccc4OC)CC3)C2)c1 [Compound 385, 3-((S)-3-((R)-8-(4′-(aminomethyl)-4-methoxybiphenyl-3-ylsulfonyl)-1-oxa-8-azaspiro[4.5]decan-3-ylamino)-2-hydroxypropoxy)-N-methylbenzenesulfonamide]	11 nM
CNS(=O)(=O)c1cccc(OC[C@@H](O)CNC2COC3(CCN(S(=O)(=O)c4ccc5cn[nH]c5c4)CC3)C2)c1 (stereo partly drawn) [Compound 328, 3-((2S)-3-(8-(1H-indazol-6-ylsulfonyl)-1-oxa-8-azaspiro[4.5]decan-3-ylamino)-2-hydroxypropoxy)-N-methylbenzenesulfonamide]	37 nM
CNS(=O)(=O)c1cccc(OC[C@@H](O)CNC2COC3(CCN(S(=O)(=O)c4cccc(-c5sccc5C)c4)CC3)C2)c1 (stereo partly drawn) [Compound 116, 3-((2S)-2-hydroxy-3-(8-(3-(3-methylthiophen-2-yl)phenylsulfonyl)-1-oxa-8-azaspiro[4.5]decan-3-ylamino)propoxy)-N-methylbenzenesulfonamide]	23.5 nM
CN(C)CCNS(=O)(=O)c1cccc(OC[C@@H](O)CNC2COC3(CCN(S(=O)(=O)c4ccc5ccccc5c4)CC3)C2)c1 (stereo partly drawn) [Compound 167, N-(2-(dimethylamino)ethyl)-3-((2S)-2-hydroxy-3-(8-(naphthalen-2-ylsulfonyl)-1-oxa-8-azaspiro[4.5]decan-3-ylamino)propoxy)benzenesulfonamide]	2150 nM
CNS(=O)(=O)c1cccc(OC[C@@H](O)CN[C@H]2COC3(CCN(S(=O)(=O)c4cccc(-c5cnn(C)c5)c4)CC3)C2)c1 [Compound 215, 3-((S)-2-hydroxy-3-((R)-8-(3-(1-methyl-1H-pyrazol-4-yl)phenylsulfonyl)-1-oxa-8-azaspiro[4.5]decan-3-ylamino)propoxy)-N-methylbenzenesulfonamide]	7.41 nM
CNS(=O)(=O)c1cccc(OC[C@@H](O)CNC2COC3(CCN(S(=O)(=O)c4ccc5c(c4)OCCO5)CC3)C2)c1 (stereo partly drawn) [Compound 332, 3-((2S)-3-(8-(2,3-dihydrobenzo[b][1,4]dioxin-6-ylsulfonyl)-1-oxa-8-azaspiro[4.5]decan-3-ylamino)-2-hydroxypropoxy)-N-methylbenzenesulfonamide]	17.9 nM
CNS(=O)(=O)c1cccc(OC[C@@H](O)CNC2COC3(CCN(S(=O)(=O)c4cccc(-c5cscc5C)c4)CC3)C2)c1 (stereo partly drawn) [Compound 109, 3-((2S)-2-hydroxy-3-(8-(3-(4-methylthiophen-3-yl)phenylsulfonyl)-1-oxa-8-azaspiro[4.5]decan-3-ylamino)propoxy)-N-methylbenzenesulfonamide]	13.7 nM
O=S(=O)(NCCF)c1cccc(OC[C@@H](O)CN[C@H]2COC3(CCN(S(=O)(=O)c4cnc5ccccc5c4)CC3)C2)c1 [Compound 394, N-(2-fluoroethyl)-3-((S)-2-hydroxy-3-((R)-8-(quinolin-3-ylsulfonyl)-1-oxa-8-azaspiro[4.5]decan-3-ylamino)propoxy)benzenesulfonamide]	46.9 nM
